Data as given in ChEMBL document CHEMBL3271954, “Antitumor agents. 25. Synthesis and antitumor activity of uracil and thymine alpha-methylene-gamma-lactones and related derivatives” (1977).
The source made the active and inactive calls. The rule behind the calls is not given here.

What was measured:
Assay type in all cases: functional
Conditions in all cases: for T/C: route intraperitoneal
[1] = test system: B16; test: Antitumor activity against mouse B16 cells allografted in C57Bl/6 mouse at 25 mg/kg/day, ip administered for 2 weeks relative to control
[2] = test system: P388; test: Antitumor activity against mouse P388 cells allografted in DBA/2 mouse at 25 mg/kg/day, ip administered for 2 weeks relative to control
[3] = test system: W256; test: Antitumor activity against rat Walker 256 cells allografted in Sprague-Dawley rat at 2.5 mg/kg/day, ip relative to control

Compound: O=c1[nH]cc(F)c(=O)[nH]1 [FLUOROURACIL]
- T/C [1]: 164%
- T/C [2]: 186%

Compound: C=C1C(=O)O[C@H]2[C@H]1[C@H](OC(=O)/C(C)=C/CO)C/C(C)=C/CC[C@@]1(CO)O[C@H]21
- T/C [3]: 330%
- T/C [1]: 111%
- T/C [2]: 147%

Compound: C=C1CC(C)(Cn2ccc(=O)[nH]c2=O)OC1=O (configuration not stated)
- T/C [3]: 131%
- T/C [1]: 111%
- T/C [2]: 115%

Compound: C=C1CC(C)(Cn2cc(COC(=O)c3cc(OC)c(OC)c(OC)c3)c(=O)[nH]c2=O)OC1=O (configuration not stated)
- T/C [3]: 209%
- T/C [1]: 129%
- T/C [2]: 142%

Compound: O=c1cc[nH]c(=O)[nH]1
- Activity [3]: inactive
- Activity [1]: inactive
- Activity [2]: inactive

Compound: C=C1CC(C)(Cn2cc(COC(=O)/C=C/c3ccccc3)c(=O)[nH]c2=O)OC1=O (configuration not stated)
- T/C [3]: 211%
- T/C [1]: 141%
- T/C [2]: 130%

Compound: C=C1C(=O)O[C@H]2/C=C(/C)[C@H](CO)C/C=C(\C)C[C@@H](OC(=O)/C(=C/CO)CO)[C@@H]12 [EUPAFORMOSANIN]
- T/C [3]: 471%
- T/C [1]: 113%
- T/C [2]: 147%

Compound: Cc1c[nH]c(=O)[nH]c1=O
- Activity [3]: inactive
- Activity [1]: inactive
- Activity [2]: inactive

Compound: C=C1CC(C)(Cn2cc(C)c(=O)[nH]c2=O)OC1=O (configuration not stated)
- T/C [3]: 127%
- T/C [1]: 123%
- T/C [2]: 127%

Compound: N[C@@H](Cc1ccc(N(CCCl)CCCl)cc1)C(=O)O [MELPHALAN]
- T/C [3]: 317%
